According to ChEMBL document CHEMBL1201862, “PubChem BioAssay data set” (2004):
Each block holds one compound with its values, some of them ahead of it. Activity calls are given as the source filed them.

How the values were obtained:
A549 = test: viability loss in A549 cells – cell-based, plate reader, cherry-pick samples, cytotoxicity control, dose response (AID 687028); format: functional; conditions: Homo sapiens
[1] = activation of miR-122 Renilla sensor silencing – cell-based, Huh7 psiCHECK-miR122, Renilla luciferase, cherry-picked, dose response (AID 651956); format: functional;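 also: huh7 hepatoma cells stably carrying a psiCHECK-2 miR-122 sensor plasmid; renilla luciferase signal reporting endogenous miR-122 activity after 48 h compound exposure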
Caspase-6 = target: T1, Caspase-6 (Homo sapiens, UniProt P55212); test: inhibition of CASP6 peptide cleavage – biochemical, VEID-R110 fluorescence, dry powder retest, dose response (AID 743332)
T1 sequence (P55212 whole entry): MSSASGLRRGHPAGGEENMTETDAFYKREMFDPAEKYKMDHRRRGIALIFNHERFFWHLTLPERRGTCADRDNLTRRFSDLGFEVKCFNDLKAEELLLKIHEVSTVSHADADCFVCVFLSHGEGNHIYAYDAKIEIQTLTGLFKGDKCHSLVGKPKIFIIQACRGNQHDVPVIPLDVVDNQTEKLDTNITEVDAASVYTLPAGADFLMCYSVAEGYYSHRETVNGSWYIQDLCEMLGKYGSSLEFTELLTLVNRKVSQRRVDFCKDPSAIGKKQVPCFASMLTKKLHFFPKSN

[2] = viability loss in HEK293 kidney cells – cell-based, cherry-picks, set 5, cytotoxicity control, dose response (AID 1053117); format: functional
[3] = viability loss in HepG2 hepatoma cells – cell-based, cherry-picks, set 5, cytotoxicity control, dose response (AID 1053118); format: functional
[4] = human cervical cancer cell viability loss – 24 h, plate reader, dry powder, cytotoxicity control, dose response (AID 686928); format: functional, cell-based; conditions: HeLa
[5] = viability loss in A549 lung cancer cells – cell-based, cherry-picks, […], cytotoxicity control, dose response (AID 1053119); format: functional
[6] = target: Potassium channel subfamily K member 3 (Homo sapiens, UniProt O14649); test: inhibition of human KCNK3 channel flux – CHO cells, FluxOR thallium flux, SAR follow-up (AID 652212); format: functional
[7] = target: Potassium channel subfamily K member 9 (Homo sapiens, UniProt Q9NPC2); test: KCNK9 flux blockade, concentration-response – cell-based, FluxOR thallium flux, selectivity assay for TASK1 inhibitor project, SAR follow-up (AID 652211); format: functional;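 also: potency is for inhibitors of the channel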
[8] = inhibition of bursicon-driven LGR2 cAMP signaling – cell-based, HEK293, CRE-luciferase reporter, cherry pick, dose response (AID 743342); format: functional

Potassium channel subfamily K member 9, sequence (Q9NPC2 whole entry): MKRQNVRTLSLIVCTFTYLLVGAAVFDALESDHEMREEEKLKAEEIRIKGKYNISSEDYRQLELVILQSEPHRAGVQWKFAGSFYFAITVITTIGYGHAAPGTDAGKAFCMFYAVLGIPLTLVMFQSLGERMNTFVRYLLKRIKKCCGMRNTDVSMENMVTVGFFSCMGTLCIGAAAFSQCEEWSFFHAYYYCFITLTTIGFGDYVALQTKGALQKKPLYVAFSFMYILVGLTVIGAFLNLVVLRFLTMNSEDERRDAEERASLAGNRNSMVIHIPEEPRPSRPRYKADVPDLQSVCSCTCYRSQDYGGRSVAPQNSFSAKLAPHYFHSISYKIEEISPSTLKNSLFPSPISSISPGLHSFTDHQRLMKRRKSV
Potassium channel subfamily K member 3, sequence (O14649 whole entry): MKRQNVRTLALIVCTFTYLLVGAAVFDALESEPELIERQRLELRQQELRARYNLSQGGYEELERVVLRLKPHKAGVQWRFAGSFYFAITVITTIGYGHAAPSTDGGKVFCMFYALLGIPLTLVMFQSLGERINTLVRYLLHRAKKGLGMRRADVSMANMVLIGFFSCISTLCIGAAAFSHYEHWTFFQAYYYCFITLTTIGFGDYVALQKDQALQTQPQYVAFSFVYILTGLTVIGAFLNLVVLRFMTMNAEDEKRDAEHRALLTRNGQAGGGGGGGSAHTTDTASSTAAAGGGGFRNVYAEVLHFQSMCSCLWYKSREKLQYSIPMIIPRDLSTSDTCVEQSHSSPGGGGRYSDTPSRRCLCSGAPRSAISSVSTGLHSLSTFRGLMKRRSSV

Structure (SMILES): CCCCCCCCN1C(=O)[C@H](CC(=O)NCCC(C)C)C[C@@]2(C(=O)OCC)CCCC=C12
- AC50 (A549): 21 µM (active)

Structure (SMILES): C[C@H](CO)N1C[C@H](C)[C@H](CN(C)CC2CCCCC2)OCCCC[C@H](C)Oc2ccc(NC(=O)Nc3cccc4ccccc34)cc2C1=O
- AC50 [1]: 3.25 µM (active)

- AC50 (Caspase-6): 23.9 µM (active)
Structure (SMILES): O=C(c1ccc(-n2cccc2)cc1)N1CCN(S(=O)(=O)c2ccccc2)CC1

Structure (SMILES): C[C@@H]1CN([C@@H](C)CO)C(=O)c2cc(-c3ccccc3)cnc2O[C@H]1CN(C)Cc1ccccc1
- AC50 [2]: > 52 µM (inactive)
- AC50 [3]: > 52 µM (inactive)

Structure (SMILES): CC(C)(C)COC(=O)CSc1n[nH]c(=O)[nH]c1=O
- AC50 [4]: > 76 µM (inactive)

Structure (SMILES): CN(C)C(=O)c1ccc(-c2ccc3c(c2)[C@H]2[C@H](CCN2C(=O)c2ccc(F)cc2)[C@H](CO)N3C)cc1
- AC50 [5]: 43.6 µM (active)

- IC50 [6]: 0.134 µM (active)
- IC50 [7]: 14.7 µM (active)
Structure (SMILES): CCOc1ccccc1NC(=O)c1cccc(NC(=O)c2ccc(C)cc2)c1

Structure (SMILES): C[C@H](CO)N1C[C@H](C)[C@H](CN(C)C(=O)Nc2ccc3c(c2)OCO3)OCCCC[C@H](C)Oc2ccc(NC(=O)NC3CCCCC3)cc2C1=O
- AC50 [8]: 9.97 µM (active)
